In patent US20100267561A1, “HERBICIDAL PYRIDAZINONE DERIVATIVES” (priority 2007, published 2010):

Legend:
Format in all cases: in vivo
[1] = test system: spring wheat (Triticum aestivum); experiment: Test C pre-/postemergence plant response
In short: (§1)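 Plant response was judged by eye against untreated controls following 15 to 25 days in a controlled growth environment, using 0 for no effect and 100 for complete control. Treatments were made both preemergence and postemergence, the latter on plants of 1- to 4-leaf stage.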

canola (Brassica rapa) = experiment: Test C pre-/postemergence plant response
In short: as §1

[2] = test system: goosegrass (Eleusine indica); experiment: Test E pre-/postemergence plant response; settings: scale 0 to 100
Description: (§2) Seeds of plant species selected from bermudagrass (Cynodon dactylon), Surinam grass (Brachiaria decumbens), large crabgrass (Digitaria sanguinalis), green foxtail (Setaria viridis), goosegrass (Eleusine indica), johnsongrass (Sorghum halepense), kochia (Kochia scoparia), pitted morningglory (Ipomoea lacunosa), purple nutsedge (Cyperus rotundus), common ragweed (Ambrosia elation), black mustard (Brassica nigra), guineagrass (Panicum maximum), dallisgrass (Paspalum dilatatum), barnyardgrass (Echinochloa crus-galli), southern (S.) sandbur (Cenchrus echinatus), common sowthistle (Sonchus oleraceous), prickly sida (Sida spinosa), Italian ryegrass (Lolium multiflorum), common purslane (Portulaca oleracea), broadleaf signalgrass (Brachiaria platyphylla), common groundsel (Senecio vulgaris), common chickweed (Stellaria media), Virginia (V.) dayflower (Commelina virginica), tropical (T.) spiderwort (Commelina benghalensis), annual bluegrass (Poa annua), naked crabgrass (Digitaria nuda), itchgrass (Rottboellia cochinchinensis), quackgrass (Elytrigia repens), Canada horseweed (Conyza canadensis), field bindweed (Convolvulus arvensis), spanishneedles (Bidens bipinnata), common mallow (Malva sylvestris) and Russian thistle (Salsola kali) were planted and treated preemergence with test chemicals formulated in a non-phytotoxic solvent mixture which included a surfactant. At the same time, plants selected from these weed species were treated with postemergence applications of some of the test chemicals formulated in the same manner. Plants ranged in height from 2 to 18 cm (1- to 4-leaf stage) for postemergence treatments.
(§3) Treated plants and controls were maintained in a greenhouse for 14 to 21 days, after which time all species were compared to controls and visually evaluated. Plant response ratings, summarized in Table E, are based on a scale of 0 to 100 where 0 is no effect and 100 is complete control. A dash (-) response means no test result.

[3] = test system: large crabgrass (Digitaria sanguinalis); experiment: Test E pre-/postemergence plant response; settings: scale 0 to 100
Description: as §2, §3

[4] = test system: quackgrass (Elytrigia repens); experiment: Test E pre-/postemergence plant response; settings: scale 0 to 100
Description: as §2, §3

[5] = test system: bermudagrass (Cynodon dactylon); experiment: Test E pre-/postemergence plant response; settings: scale 0 to 100
Description: as §2, §3

[6] = test system: broadleaf signalgrass (Brachiaria platyphylla); experiment: Test E pre-/postemergence plant response; settings: scale 0 to 100
Description: as §2, §3

[7] = test system: black mustard (Brassica nigra); experiment: Test E pre-/postemergence plant response; settings: scale 0 to 100
Description: as §2, §3

[8] = test system: pitted morningglory (Ipomoea lacunosa); experiment: Test E pre-/postemergence plant response; settings: scale 0 to 100
Description: as §2, §3

[9] = Postemergence, 8 g ai/ha, scale 0 to 100, 0 no effect, 100 complete control
[10] = Postemergence, 16 g ai/ha, scale 0 to 100, 0 no effect, 100 complete control
[11] = Postemergence, 31 g ai/ha, scale 0 to 100, 0 no effect, 100 complete control
[12] = Postemergence, 62 g ai/ha, scale 0 to 100, 0 no effect, 100 complete control
[13] = Preemergence, 8 g ai/ha, scale 0 to 100 (0 no effect, 100 complete control)
[14] = Preemergence, 16 g ai/ha, scale 0 to 100 (0 no effect, 100 complete control)
[15] = Preemergence, 31 g ai/ha, scale 0 to 100 (0 no effect, 100 complete control)
[16] = Preemergence, 62 g ai/ha, scale 0 to 100, 0 no effect, 100 complete control

Cc1nn(C)c(=O)c(-n2nc(-c3ccc(Cl)cc3)cc2C)c1O [Compound 15]
Plant response rating, Wheat, Spring [1, 9]: 0
Plant response rating, Wheat, Spring [1, 10]: 0
Plant response rating, Wheat, Spring [1, 11]: 15
Plant response rating, Wheat, Spring [1, 12]: 70
Plant response rating, Wheat, Spring [1, 13]: 0
Plant response rating, Wheat, Spring [1, 14]: 10
Plant response rating, Wheat, Spring [1, 15]: 35
Plant response rating, Wheat, Spring [1, 16]: 70
Plant response rating, Canola (canola (Brassica rapa); [9]): 0
Plant response rating, Canola (canola (Brassica rapa); [10]): 0
Plant response rating, Canola (canola (Brassica rapa); [11]): 0
Plant response rating, Canola (canola (Brassica rapa); [12]): 0
Plant response rating, Canola (canola (Brassica rapa); [13]): 0
Plant response rating, Canola (canola (Brassica rapa); [14]): 0
Plant response rating, Canola (canola (Brassica rapa); [15]): 0
Plant response rating, Canola (canola (Brassica rapa); [16]): 0

Cc1cc(-c2ccc(Cl)cc2)nn1-c1c(OS(=O)(=O)c2ccccc2)cnn(C)c1=O [Compound 35]
Plant response rating, Wheat, Spring [1, 13]: 0
Plant response rating, Wheat, Spring [1, 14]: 20
Plant response rating, Wheat, Spring [1, 15]: 50
Plant response rating, Wheat, Spring [1, 16]: 65
Plant response rating, Goosegrass ([2]; 8 g ai/ha, Preemergence): 20
Plant response rating, Goosegrass ([2]; 16 g ai/ha, Preemergence): 75
Plant response rating, Goosegrass ([2]; 31 g ai/ha, Preemergence): 100
Plant response rating, Goosegrass ([2]; 62 g ai/ha, Preemergence): 100
Plant response rating, Goosegrass ([2]; Postemergence, 8 g ai/ha): 30
Plant response rating, Goosegrass ([2]; Postemergence, 16 g ai/ha): 30
Plant response rating, Goosegrass ([2]; Postemergence, 31 g ai/ha): 40
Plant response rating, Goosegrass ([2]; Postemergence, 62 g ai/ha): 75
Plant response rating, Crabgrass, Large ([3]; 8 g ai/ha, Preemergence): 20
Plant response rating, Crabgrass, Large ([3]; 16 g ai/ha, Preemergence): 20
Plant response rating, Crabgrass, Large ([3]; 31 g ai/ha, Preemergence): 95
Plant response rating, Crabgrass, Large ([3]; 62 g ai/ha, Preemergence): 100
Plant response rating, Crabgrass, Large ([3]; Postemergence, 8 g ai/ha): 50
Plant response rating, Crabgrass, Large ([3]; Postemergence, 16 g ai/ha): 60
Plant response rating, Crabgrass, Large ([3]; Postemergence, 31 g ai/ha): 75
Plant response rating, Crabgrass, Large ([3]; Postemergence, 62 g ai/ha): 80
Plant response rating, Quackgrass ([4]; 16 g ai/ha, Preemergence): 20
Plant response rating, Quackgrass ([4]; 31 g ai/ha, Preemergence): 40
Plant response rating, Quackgrass ([4]; 62 g ai/ha, Preemergence): 50
Plant response rating, Quackgrass ([4]; Postemergence, 8 g ai/ha): 0
Plant response rating, Quackgrass ([4]; Postemergence, 16 g ai/ha): 10
Plant response rating, Quackgrass ([4]; Postemergence, 31 g ai/ha): 30
Plant response rating, Quackgrass ([4]; Postemergence, 62 g ai/ha): 40
Plant response rating, Bermudagrass ([5]; 8 g ai/ha, Preemergence): 60
Plant response rating, Bermudagrass ([5]; 16 g ai/ha, Preemergence): 80
Plant response rating, Bermudagrass ([5]; 31 g ai/ha, Preemergence): 98
Plant response rating, Bermudagrass ([5]; 62 g ai/ha, Preemergence): 100
Plant response rating, Bermudagrass ([5]; Postemergence, 8 g ai/ha): 35
Plant response rating, Bermudagrass ([5]; Postemergence, 16 g ai/ha): 65
Plant response rating, Bermudagrass ([5]; Postemergence, 31 g ai/ha): 80
Plant response rating, Bermudagrass ([5]; Postemergence, 62 g ai/ha): 90
Plant response rating, Signalgrass ([6]; 16 g ai/ha, Preemergence): 80
Plant response rating, Signalgrass ([6]; 31 g ai/ha, Preemergence): 100
Plant response rating, Signalgrass ([6]; 62 g ai/ha, Preemergence): 100
Plant response rating, Signalgrass ([6]; Postemergence, 8 g ai/ha): 60
Plant response rating, Signalgrass ([6]; Postemergence, 16 g ai/ha): 70
Plant response rating, Signalgrass ([6]; Postemergence, 31 g ai/ha): 75
Plant response rating, Signalgrass ([6]; Postemergence, 62 g ai/ha): 100
Plant response rating, Mustard, Black ([7]; 8 g ai/ha, Preemergence): 0
Plant response rating, Mustard, Black ([7]; 16 g ai/ha, Preemergence): 0
Plant response rating, Mustard, Black ([7]; 31 g ai/ha, Preemergence): 0
Plant response rating, Mustard, Black ([7]; 62 g ai/ha, Preemergence): 0
Plant response rating, Mustard, Black ([7]; Postemergence, 8 g ai/ha): 0
Plant response rating, Mustard, Black ([7]; Postemergence, 16 g ai/ha): 0
Plant response rating, Mustard, Black ([7]; Postemergence, 31 g ai/ha): 0
Plant response rating, Mustard, Black ([7]; Postemergence, 62 g ai/ha): 0
Plant response rating, Morningglory ([8]; 16 g ai/ha, Preemergence): 0
Plant response rating, Morningglory ([8]; 31 g ai/ha, Preemergence): 0
Plant response rating, Morningglory ([8]; 62 g ai/ha, Preemergence): 0
Plant response rating, Morningglory ([8]; Postemergence, 8 g ai/ha): 0
Plant response rating, Morningglory ([8]; Postemergence, 16 g ai/ha): 0
Plant response rating, Morningglory ([8]; Postemergence, 31 g ai/ha): 0
Plant response rating, Morningglory ([8]; Postemergence, 62 g ai/ha): 0

Cc1cc(-c2ccc(C(F)(F)F)c(F)c2)nn1-c1c(O)c(C(F)(F)F)nn(C)c1=O [Compound 44]
Plant response rating, Wheat, Spring [1, 9]: 70
Plant response rating, Wheat, Spring [1, 10]: 95
Plant response rating, Wheat, Spring [1, 11]: 95
Plant response rating, Wheat, Spring [1, 12]: 100
Plant response rating, Wheat, Spring [1, 13]: 0
Plant response rating, Wheat, Spring [1, 14]: 20
Plant response rating, Wheat, Spring [1, 15]: 70
Plant response rating, Wheat, Spring [1, 16]: 75
Plant response rating, Canola (canola (Brassica rapa); [9]): 0
Plant response rating, Canola (canola (Brassica rapa); [10]): 0
Plant response rating, Canola (canola (Brassica rapa); [11]): 0
Plant response rating, Canola (canola (Brassica rapa); [12]): 0
Plant response rating, Canola (canola (Brassica rapa); [13]): 0
Plant response rating, Canola (canola (Brassica rapa); [14]): 0
Plant response rating, Canola (canola (Brassica rapa); [15]): 0
Plant response rating, Canola (canola (Brassica rapa); [16]): 0
